Measured values taken from patent US20100010041A1, “DIFLUORINATED PIPERIDINES FOR TREATMENT OF ALZHEIMER'S DISEASE AND RELATED CONDITIONS” (priority 2006, published 2010).

Target: T1, γ-secretase (Homo sapiens, UniProt P49768)
T1 construct: Human SH-SY5Y neuroblastoma cells overexpressing the direct γ-secretase substrate SPA4CT; endogenous in cells; host or cells: human SH-SY5Y neuroblastoma cells (stably overexpressing the substrate SPA4CT, induced with sodium butyrate)
Experiment: Cell-Based γ-Secretase Assay (Aβ(40)/Aβ(42) in media of SH-SY5Y cells overexpressing SPA4CT)
Conditions: Human SH-SY5Y neuroblastoma cells overexpressing SPA4CT; values given as ranges; read-out: IC50 values for Aβ(1-42) inhibition
Experimental: Cell-Based γ-Secretase Assay
Human SH-SY5Y neuroblastoma cells overexpressing the direct γ-secretase substrate SPA4CT were induced with sodium butyrate (10 mM) for 4 hours prior to plating. Cells were plated at 35,000 cells/well/100 μl in 96-well plates in phenol red-free MEM/10% FBS, 50 mM HEPES, 1% Glutamine and incubated for 2 hrs at 37° C., 5% CO2.
Compounds for testing were diluted into Me2SO to give a ten point dose-response curve. Typically 10 μl of these diluted compounds in Me2SO were further diluted into 182 μl dilution buffer (phenol red-free MEM/10% FBS, 50 mM HEPES, 1% Glutamine) and 10 μl of each dilution was added to the cells in 96-well plates (yielding a final Me2SO concentration of 0.5%). Appropriate vehicle and inhibitor controls were used to determine the window of the assay.
After incubation overnight at 37° C., 5% CO2, 10 μl and 50 μl media were transferred into a fresh Costar round-bottom 96-well plate for detection of Aβ(40) and Aβ(42) peptides, respectively. 40 μl Origen buffer (PBS, 2% BSA, 0.2% Tween-20) was added to the Aβ(40) wells followed by the addition of 25 μl the respective antibody premixes to the wells: • Aβ(40) premix: 1 μg/ml ruthenylated G2-10 antibody, 4 μg/ml biotinylated 4G8 antibody diluted in Origen buffer • Aβ(42) premix: 0.5 μg/ml ruthenylated G2-11 antibody, 4 μg/ml biotinylated 4G8 antibody diluted in Origen buffer
(Biotinylated 4G8 Antibody Supplied by Signet Pathology Ltd; G2-10 and G2-11 Antibodies Supplied by Chemicon)
After overnight incubation of the assay plates on a shaker at 4° C., the Origen M8 Analyser (Igen Inc.) was calibrated according to the manufacturer's instructions. 25 μl of streptavidin magnetic bead (Dynal) premix (400 μg/ml streptavidin beads/ml in Origen buffer) was added to the assay plates and incubated on a shaker for 15 minutes. 150 μl Origen buffer was added to each well and the plates were read on the Origen M8 Analyser according to the manufacturer's instructions.
Cell viability was measured in the corresponding cells after removal of the media for the Aβ assays by a colorimetric cell proliferation assay (CellTiter 96™ AQ assay, Promega) utilizing the bioreduction of MTS (Owen's reagent) to formazan according to the manufacturer's instructions. Briefly, 5 μl of 10×MTS/PES was added to the remaining 50 μl of media before returning to the incubator. The optical density was read at 495 nm after ˜4 hours.
LD50 and IC50 values for inhibition of Aβ(40) and Aβ(42) were calculated by nonlinear regression fit analysis using the appropriate software (eg. Excel fit). The total signal and the background were defined by the corresponding Me2SO and inhibitor controls.

Row | Structure (SMILES) | IC50 [nM]
1 | CC(C)(C)CC[C@H](c1ccc(C(F)(F)F)cc1)N1CCC(F)(F)[C@H](CC(=O)O)[C@H]1c1ccc(C(F)(F)F)cc1 (relative stereo) [Example 1, {1-{4,4-dimethyl-1-[4-(trifluoromethyl)phenyl]pentyl}-4,4-difluoro-2-[4-(trifluoromethyl)phenyl]piperidin-3-yl}acetic acid] | 1000 to 1500
2 | C=C(C)C#C[C@H](CCC(F)(F)F)N1CCC(F)(F)[C@H](CC(=O)O)[C@H]1c1ccc(C(F)(F)F)cc1 (relative stereo) [Example 2, {4,4-difluoro-1-[4-methyl-1-(3,3,3-trifluoropropyl)pent-4-en-2-yn-1-yl]-2-[4-(trifluoromethyl)phenyl]piperidin-3-yl}acetic acid] | 1500 to 2000
3 | C=C(C)C#C[C@H](CCC(=C)C)N1CCC(F)(F)[C@H](CC(=O)O)[C@H]1c1ccc(C(F)(F)F)cc1 (relative stereo) [Example 7, {4,4-difluoro-1-[4-methyl-1-(3-methylbut-3-en-1-yl)pent-4-en-2-yn-1-yl]-2-[4-(trifluoromethyl)phenyl]piperidin-3-yl}acetic acid] | 1500 to 2000
4 | CC(C)CC[C@H](c1ccc(C(F)(F)F)cc1)N1CCC(F)(F)[C@H](CC(=O)O)[C@H]1c1ccc(C(F)(F)F)cc1 (relative stereo) [Example 8, {4,4-difluoro-1-(4-methyl-1-[4-(trifluoromethyl)phenyl]pentyl}-2-[4-(trifluoromethyl)phenyl]piperidin-3-yl}acetic acid] | 2000 to 3000
5 | CC(C)(C)CC[C@H](CC(C)(C)C)N1CCC(F)(F)[C@H](CC(=O)O)[C@H]1c1ccc(C(F)(F)F)cc1 (relative stereo) [Example 11, {1-[1-(2,2-dimethylpropyl)-4,4-dimethylpentyl]-4,4-difluoro-2-[4-(trifluoromethyl)phenyl]-piperidin-3-yl}acetic acid] | 1500 to 2000
6 | CC(C)(C)/C=C\[C@H](CC(C)(C)C)N1CCC(F)(F)[C@H](CC(=O)O)[C@H]1c1ccc(C(F)(F)F)cc1 (relative stereo) [Example 12, {1-[(2Z)-1-(2,2-dimethylpropyl)-4,4-dimethylpent-2-en-1-yl]-4,4-difluoro-2-[4-(trifluoromethyl)phenyl]piperidin-3-yl}acetic acid] | 2000 to 3000
7 | CC(C)(C)C[C@@H](CCc1ccc(C(F)(F)F)cc1)N1CCC(F)(F)[C@H](CC(=O)O)[C@H]1c1ccc(C(F)(F)F)cc1 (relative stereo) [Example 14, {1-(3,3-dimethyl-1-{2-[4-(trifluoromethyl)phenyl]ethyl}butyl)-4,4-difluoro-2-[4-(trifluoromethyl)phenyl]piperidin-3-yl}acetic acid] | 2000 to 3000
8 | CC(C)(C)CCC(CCC(C)(C)C)N1CCC(F)(F)[C@H](CC(=O)O)[C@H]1c1ccc(C(F)(F)F)cc1 (relative stereo) [Example 15, {1-[1-(3,3-dimethylbutyl)-4,4-dimethylpentyl]-4,4-difluoro-2-[4-(trifluoromethyl)phenyl]piperidin-3-yl}acetic acid] | 1500 to 2000
9 | CC(C)(C)C#C[C@H](CCCC(C)(C)C)N1CCC(F)(F)[C@H](CC(=O)O)[C@H]1c1ccc(C(F)(F)F)cc1 (relative stereo) [Example 17, {1-[1-(3,3-dimethylbut-1-yn-1-yl)-5,5-dimethylhexyl]-4,4-difluoro-2-[4-(trifluoromethyl)phenyl]piperidin-3-yl}acetic acid] | 1000 to 1500
10 | CC(C)(C)/C=C\[C@H](CCC(F)(F)F)N1CCC(F)(F)[C@H](CC(=O)O)[C@H]1c1ccc(C(F)(F)F)cc1 (relative stereo) [Example 20, {1-[(2Z)-4,4-dimethyl-1-(3,3,3-trifluoropropyl)pent-2-en-1-yl]-4,4-difluoro-2-[4-(trifluoromethyl)phenyl]piperidin-3-yl}acetic acid] | < 500
11 | CC(C)(C)C#CCN1[C@H](c2ccc(C(F)(F)F)cc2)[C@@H](CC(=O)O)C(F)(F)C[C@H]1c1ccc(C(F)(F)F)cc1 (relative stereo) [Example 23, {1-(4,4-dimethylpent-2-yn-1-yl)-4,4-difluoro-2,6-bis[4-(trifluoro-methyl)phenyl]piperidin-3-yl}acetic acid] | 2000 to 3000
12 | CC(C)(C)CCCN1[C@H](c2ccc(C(F)(F)F)cc2)[C@@H](CC(=O)O)C(F)(F)C[C@H]1c1ccc(C(F)(F)F)cc1 (relative stereo) [Example 24, {1-(4,4-dimethylpentyl)-4,4-difluoro-2,6-bis[4-(trifluoromethyl)phenyl]piperidin-3-yl}acetic acid] | 1000 to 1500
13 | CC(C)(C)CC[C@H](CCC(F)(F)F)N1CCC(F)(F)[C@H](CC(=O)O)[C@H]1c1ccc(C(F)(F)F)cc1 (single isomer, unassigned) [Example 18, {1-[4,4-dimethyl-1-(3,3,3-trifluoropropyl)pentyl]-4,4-difluoro-2-[4-(trifluoromethyl)phenyl]piperidin-3-yl}acetic acid] | < 500
14 | CC(C)(C)C#C[C@H](CCC(F)(F)F)N1CCC(F)(F)[C@H](CC(=O)O)[C@H]1c1ccc(C(F)(F)F)cc1 (single isomer, unassigned) [Example 19, {1-[4,4-dimethyl-1-(3,3,3-trifluoropropyl)pent-2-yn-1-yl]-4,4-difluoro-2-[4-(trifluoromethyl)phenyl]piperidin-3-yl}acetic acid] | < 500
15 | CC(C)(C)CC[C@H](CCC(F)(F)F)N1CCC(F)(F)[C@H](CC(=O)O)[C@H]1c1ccc(C(F)(F)F)cc1 (single isomer, unassigned) [Example 22, {1-[4,4-dimethyl-1-(3,3,3-trifluoropropyl)pentyl]-4,4-difluoro-2-[4-(trifluoromethyl)phenyl]piperidin-3-yl}acetic acid] | 1000 to 1500
16 | CC(C)(C)/C=C\[C@H](CCC(F)(F)F)N1CCC(F)(F)[C@H](CC(=O)O)[C@H]1c1ccc(C(F)(F)F)cc1 [Example 6, {1-[(2Z)-4,4-dimethyl-1-(3,3,3-trifluoropropyl)pent-2-en-1-yl]-4,4-difluoro-2-[4-(trifluoromethyl)phenyl]piperidin-3-yl}acetic acid] | 1000 to 1500
